# Where no end group is shown, it is not given here.
# Assays:
# [1] = target: SARS-CoV-2 spike trimer protein (Severe acute respiratory syndrome coronavirus 2, UniProt P0DTC2); test: biochemical; assay type: binding
# [2] = target: SARS-CoV-2 spike monomer protein (Severe acute respiratory syndrome coronavirus 2, UniProt P0DTC2); test: biochemical; assay type: binding
sequence,measurement,setting,value
NFWISPKLAFALGGGS [Spep-1],Kd,[1],1.7 nM
same,Kd,[2],2.14 nM

# Reference: article PMC9254439 (Virologica Sinica, 2022)
